We go through four compounds from patent publication US20100035823A1, “LIGANDS OF SH3 DOMAINS” (ALBERT EINSTEIN COLLEGE OF MEDICINE OF YESHIVA UNIVERSITY, priority 2005, published 2010).

Usually Kd stands for the concentration at which binding is half-saturated. In general, IC50 refers to the concentration at which inhibition is half-maximal.

Common to all, as to assay type: binding
Test [1] concerns the target T1, Fyn SH3 domain (Fyn SH3-GST fusion protein) (Homo sapiens, UniProt P06241).
T1 construct: The GST-SH3 fusion proteins, Fyn (85-139) and Lck (54-120); purchased Santa Cruz Biotechnology
Description: Determination of Kd values by equilibrium dialysis (fluorescence), Fyn SH3 domain. Conditions: for Kd: Fyn SH3 domain; for Selectivity among Src family SH3 domains (in words): Fyn versus other Src kinase family SH3 domains; for Enhancement in Fyn SH3 affinity relative to parent peptide 9: ratio of KD values versus acetylated derivative 9. Here is the method: Determination of Kd Values. […] Therefore, the KD values for the SH3 complexes of these species were determined via equilibrium dialysis. All samples were prepared in buffer containing TBS and 1 mM DTT at pH 7.5. Slide-A-Lyzer dialysis slide cassette (0.1-0.5 mL capacity) was employed and contained 30 nM or 500 nM Fyn SH3-GST fusion proteins. The cassettes (400 μL final volume) were placed in a beaker containing a volume of buffer solution (TBS and 1 mM DTT at pH 7.5) that was at least 400-fold greater than that of the sample volume in the dialysis cassette. As a consequence, concentrations of non-SH3-bound peptide were held constant in the dialysis slide cassette over the course of the experiment. Equilibrium dialysis experiments were performed over a period of at least 16 hr and maintained at 4°C. Differences in the fluorescence between the solution in the slide cassette and that in the beaker were measured. The excitation wavelength employed for the peptides were 328 nm. Emission was monitored at 378 nm. The Kd values were calculated from the following equation for fluorescent peptides 8a, 11a, 14 and 7, where [E]t=total enzyme concentration; [E·L]=enzyme-peptide complex; [L]=free peptide concentration.
For non-fluorescent peptide 9, the following equation was used for the determination of Kd′:
Where Kd=the dissociation constant of competition fluorescent peptide, [L′]=total lion-fluorescent peptide concentration, [L]=total competitive fluorescent peptide concentration, [E]t=total SH3 domain concentration; [E·L]=enzyme-peptide (fluorescent competitive peptide) complex concentration.
On the technique in general: In equilibrium dialysis only unbound substance equilibrates across the membrane.

For another test, the target named is T2, Lck SH3 domain (Homo sapiens, UniProt P06239).
T2 construct: The GST-SH3 fusion proteins, Fyn (85-139) and Lck (54-120); GST; purchased Santa Cruz Biotechnology
Description: Determination of Kd values by equilibrium dialysis (fluorescence), Lck SH3 domain. Conditions: read-out: Dissociation constant (KD), Lck.

In another test the target is T3, Hck SH3 domain (Homo sapiens, UniProt P08631).
T3 construct: particularly with respect to the SH3 domains from Lck and Hck
Put plainly: Determination of Kd values by equilibrium dialysis (fluorescence), Hck SH3 domain. Conditions: read-out: Dissociation constant (KD), Hck.

Test [2] has as its target T4, Fyn SH3-GST fusion protein (Homo sapiens, UniProt P06241).
T4 construct: The GST-SH3 fusion proteins, Fyn (85-139) and Lck (54-120); purchased Santa Cruz Biotechnology
Description: Competition ELISA against microwell-bound biotinylated peptoid 6. Conditions: competition with biotinylated peptoid 6, read-out: IC50 (relative affinity) in ELISA assay. As to the method: We employed Arg-Ala-Leu-Pro-Pro-Leu-Pro as the starting point for Fyn SH3 ligand optimization, a sequence that is consistent with most known SH3 domain-binding elements. We initially introduced diversity elements on the N-terminus of this peptide to furnish Library I (FIG. 2). The 720 individual members of this library were subsequently assessed for SH3 binding potency via an ELISA-based screen. The latter was performed in parallel using streptavidin-coated 96 well plates. A biotinylated-peptide SH3-directed ligand was appended to the individual wells and a GST-SH3 domain fusion protein was subsequently introduced. Competition between members of the library and the microwell-bound biotinylated peptide ligand determined the extent to which the GST-SH3 protein was retained by the individual wells after washing. The latter was quantified using an anti-GST-peroxidase fusion construct. The assay is dependent upon a strong binding interaction between the GST-SH3 domain and the biotinylated peptide ligand associated with the streptavidin-coated well. […]
Screening of the Peptide/Nonpeptide Conjugate Library. […] 100 μL of 1M sulfuric acid solution was introduced to stop the peroxidase reaction and absorbance was measured at 450 nm with a plate reader. […]
In general terms: An ELISA detects its analyte on a solid surface through an enzyme-linked reagent.

A further test deals with Yes SH3 domain (Homo sapiens, UniProt P07947). Put plainly: Determination of Kd values by equilibrium dialysis (fluorescence), Yes SH3 domain. Conditions: read-out: Dissociation constant (KD), Yes.
The target in another test is Src SH3 domain (Homo sapiens, UniProt P12931). Description: Determination of Kd values by equilibrium dialysis (fluorescence), Src SH3 domain. Conditions: read-out: Dissociation constant (KD), Src.
Where [3] appears, read: equilibrium dialysis, 4°C, pH 7.5, read-out: Dissociation constant (KD), Fyn.

Read-outs that look alike come from different tables or passages of the source. Where a SMILES comes first, the peptide text is derived from it. [ ]: non-standard residue; d: D form. The star is where a group is joined. FITC = O=C1OC2(c3ccc(O)cc3Oc3cc(O)ccc32)c2ccc(NC(=S)*)cc21; Benzoyl(2,3-diOH) = O=C(c1cccc(O)c1O)*; Nicotinoyl(2-OH) = O=C(c1cccnc1O)*; Nspe = C[C@H](NCC(=O)O)c1ccccc1; X1 = O=C([C@H](O)c1ccccc1)*; Dap = NC[C@H](N)C(=O)O; Ahx = NCCCCCC(=O)O

Sequence of Yes SH3 domain (P07947 91-152 limits assumed): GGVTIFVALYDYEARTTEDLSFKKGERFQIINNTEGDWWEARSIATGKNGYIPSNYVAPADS
T3 sequence (P08631 78-138 limits assumed): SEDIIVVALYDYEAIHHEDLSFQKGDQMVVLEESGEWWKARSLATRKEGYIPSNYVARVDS
T1 sequence (P06241 85-139): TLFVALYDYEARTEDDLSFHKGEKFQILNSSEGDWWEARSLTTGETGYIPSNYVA
T2 sequence (P06239 54-120): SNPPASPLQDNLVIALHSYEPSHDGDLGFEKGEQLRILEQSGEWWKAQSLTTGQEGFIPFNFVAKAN
T4 sequence (P06241 85-139): as the sequence (P06241 85-139) above

Take `CC(C)C[C@H](NC(=O)[C@@H]1CCCN1C(=O)[C@@H]1CCCN1C(=O)[C@H](C)NC(=O)[C@H](Cc1ccc(O)cc1)NC(=O)CCCCCNC(=O)CCCCCNC(=S)Nc1ccc2c(c1)C(=O)OC21c2ccc(O)cc2Oc2cc(O)ccc21)C(=O)N(CC(=O)N1CCC[C@H]1C(=O)N[C@@H](CCCNC(=N)N)C(=O)N[C@@H](CC(N)=O)C(=O)N[C@@H](CCCNC(=N)N)C(=O)N1CCC[C@H]1C(=O)N[C@@H](CCCNC(=N)N)C(=O)N[C@@H](C)C(N)=O)[C@@H](C)c1ccccc1` [Ligand 7] ({FITC-Ahx-Ahx}-YAPPL[Nspe]PRNRPRA-NH2): the Kd in test [1] (values in nM, read-out: KD for the Fyn SH3 domain) stood at 230 ± 30 nM. Also, in test [1], the “Selectivity among Src family SH3 domains (in words)” value was “little selectivity versus other members of the Src kinase family”.

On to `CC(C)C[C@H](NC(=O)[C@@H]1CCCN1C(=O)[C@@H]1CCCN1C(=O)[C@H](CC(C)C)NC(=O)[C@H](C)NC(=O)[C@H](CCCNC(=N)N)NC(=O)c1cccnc1O)C(=O)N1CCC[C@H]1C(N)=O` [Ligand 8a] ({Nicotinoyl(2-OH)}-RALPPLP-NH2), for which the Kd in test [1] (setting [3]) was found to be 1200 ± 200 nM; on Lck SH3 domain it was 5.3 ± 0.4 µM; on Hck SH3 domain, 5.1 ± 0.7 µM; on Yes SH3 domain, 2.7 ± 0.3 µM; on Src SH3 domain it was 2.5 ± 0.2 µM. Also, the “Selectivity among Src family SH3 domains (in words)” value in test [1] was “some selectivity in favor of Fyn”. Also, the “Enhancement in Fyn SH3 affinity relative to parent peptide 9” value in test [1] is around 15 fold. Also, in test [2], the concentration for half-maximal inhibition (IC50) turned out to be 15 µM.

Consider `CC(C)C[C@H](NC(=O)[C@@H]1CCCN1C(=O)[C@@H]1CCCN1C(=O)[C@H](CC(C)C)NC(=O)[C@H](C)NC(=O)[C@H](CCCNC(=N)N)NC(=O)c1cccnc1O)C(=O)N1CCC[C@H]1C(=O)N[C@@H](CNC(=O)c1cccc(O)c1O)C(N)=O` [Ligand 11a] ({Nicotinoyl(2-OH)}-RALPPLP[Dap](Benzoyl(2,3-diOH))-NH2), for which the Kd in test [1] (setting [3]) was determined as 110 ± 30 nM; on Lck SH3 domain, 0.59 ± 0.08 µM; at Hck SH3 domain, 0.62 ± 0.07 µM; on Yes SH3 domain it was 0.38 ± 0.14 µM; at Src SH3 domain it was 0.37 ± 0.05 µM. For the same compound, the “Selectivity among Src family SH3 domains (in words)” value in test [1] is “slight improvement in selectivity for the Fyn SH3 domain relative to Lck and Hck”. Moreover, the “Enhancement in Fyn SH3 affinity relative to parent peptide 9” value in test [1] is given as above 100 fold.

As for `CC(C)C[C@H](NC(=O)[C@@H]1CCCN1C(=O)[C@@H]1CCCN1C(=O)[C@H](CC(C)C)NC(=O)[C@H](CNC(=O)[C@H](O)c1ccccc1)NC(=O)[C@H](CCCNC(=N)N)NC(=O)c1cccnc1O)C(=O)N1CCC[C@H]1C(=O)N[C@@H](CNC(=O)c1cccc(O)c1O)C(N)=O` [Ligand 14] ({Nicotinoyl(2-OH)}-R[Dap](X1)LPPLP[Dap](Benzoyl(2,3-diOH))-NH2), the Kd in test [1] (setting [3]) is 25 ± 5 nM; at Lck SH3 domain, 0.27 ± 0.03 µM; on Hck SH3 domain, 0.26 ± 0.03 µM; at Yes SH3 domain, 0.19 ± 0.02 µM; at Src SH3 domain it was 0.23 ± 0.04 µM. In addition, the “Selective affinity for Fyn versus SH3 domains from other Src kinase family members” value in test [1] (Fyn versus Lck, Src, Yes, Hck SH3 domains) turned out to be 10 fold.
